Molecules are shown by their SMILES.

By melting point is commonly meant the temperature, or range, at which the solid turns liquid. `O=C(Nc1ccc(Oc2ccccc2)cc1)N1CCN(c2ncnc3c(I)cc(I)cc23)CC1` [Compound 380, 4-(6,8-Diiodo-4-quinazolinyl)-N-(4-phenoxyphenyl)-1-piperazinecarboxamide] returned a melting point of 242 to 244 °C.
With `COc1cc2ncnc(N3CCN(C(=S)NCCCCc4ccccc4)CC3)c2cc1OC` [Compound 7, 4-(6,7-Dimethoxy-4-quinazolinyl)-N-(4-phenylbutyl)-1-piperazinethiocarboxamide] the figure was 112 to 114 °C; with `CCn1c(=O)n(CC)c2cc3c(N4CCN(C(=O)Nc5ccc(Oc6ccccc6)cc5)CC4)ncnc3cc21` [Compound 122, 4-(1,3-Diethyl-1,3-dihydro-2-oxo-2H-imidazo[4,5-g]quinazolin-8-yl)-N-(4-phenoxyphenyl)-1-piperazinecarboxamide], 168 to 169 °C.
With `COc1cc2ncnc(N3CCN(C(=O)N[C@H](C)c4ccccc4)CC3)c2cc1OC` [Compound 128, (R)-4-(6,7-Dimethoxy-4-quinazolinyl)-N-(1-phenylethyl)-1-piperazinecarboxamide] the figure was 189 to 190 °C; with `FC(F)(F)c1ccc2nccc(N3CCN(C(=S)NCc4ccccc4)CC3)c2c1` [Compound 398, N-Benzyl-4-(6-trifluoromethyl-4-quinolyl)-1-piperazinethiocarboxamide], 158 to 159 °C.
As for `CC(C)Oc1ccc2c(N3CCN(C(=O)Nc4ccc(Oc5ccccc5)cc4)CC3)ncnc2c1` [Compound 318, 4-(7-Isopropoxy-4-quinazolinyl)-N-(4-phenoxyphenyl)-1-piperazinecarboxamide], the figure is 181 to 182 °C; as for `COc1ccc2ncnc(N3CCN(C(=S)NCc4cccnc4)CC3)c2c1` [Compound 310, 4-(6-Methoxy-4-quinazolinyl)-N-(3-picolyl)-1-piperazinethiocarboxamide], 139 to 140 °C.
Turning to `Cl.Cl.S=C(NCc1cccnc1)N1CCN(c2ccnc3ccc(Cl)cc23)CC1`, the melting point is 162 to 164 °C.
As for `CCc1cccc(NC(=S)N2CCN(c3ncnc4cc(OC)c(OC)cc34)CC2)c1` [Compound 149, 4-(6,7-Dimethoxy-4-quinazolinyl)-N-(3-ethylphenyl)-1-piperazinethiocarboxamide], the figure is 195 to 197 °C; as for `COc1cc2ncnc(N3CCN(C(=O)Nc4cccc5ccccc45)CC3)c2cc1OC` [Compound 8, 4-(6,7-Dimethoxy-4-quinazolinyl)-N-(1-naphthyl)-1-piperazinecarboxamide], 254 to 256 °C.
With `COc1cc2ncnc(N3CCN(C(=O)Nc4cccc(Cl)c4)CC3)c2cc1OC` [Compound 39, N-(3-Chlorophenyl)-4-(6,7-dimethoxy-4-quinazolinyl)-1-piperazinecarboxamide] the figure was 223 to 224 °C.
Molecule `COc1cc2ncnc(N3CCN(C(=S)NCC4(c5ccc(Cl)cc5)CC4)CC3)c2cc1OC` [Compound 446, N-[1-(4-Chlorophenyl)cyclopropylmethyl]-4-(6,7-dimethoxy-4-quinazolinyl)-1-piperazinethiocarboxamide] yielded a melting point of 108 to 111 °C.
As for `CCCCOc1ccc(NC(=O)N2CCN(c3ncnc4cc(OC)c(OC)cc34)CC2)cc1` [Compound 58, N-(4-Butoxyphenyl)-4-(6,7-dimethoxy-4-quinazolinyl)-1-piperazinecarboxamide], the figure is 213 to 214 °C; as for `COc1cc2ncnc(N3CCN(C(=S)NCc4ccncc4)CC3)c2cc1OC` [Compound 270, 4-(6,7-Dimethoxy-4-quinazolinyl)-N-(4-picolyl)-1-piperazinethiocarboxamide], 236 to 239 °C; as for `COC(=O)c1sccc1NC(=S)N1CCN(c2ncnc3cc(OC)c(OC)cc23)CC1` [Compound 260, 4-(6,7-Dimethoxy-4-quinazolinyl)-N-(2-methoxycarbonyl-3-thienyl)-1-piperazinethiocarboxamide], 226 to 228 °C.
As for `O=C(Nc1ccc(Oc2ccccc2)cc1)N1CCN(c2ncnc3cc4c(cc23)OCO4)CC1` [Compound 367, 4-(6,7-Methylenedioxy-4-quinazolinyl)-N-(4-phenoxyphenyl)-1-piperazinecarboxamide], the figure is 206 to 207 °C.
Molecule `COc1cc2ncnc(N3CCN(C(=S)Nc4ccc(Br)c(C)c4)CC3)c2cc1OC` [Compound 191, N-(4-Bromo-3-methylphenyl)-4-(6,7-dimethoxy-4-quinazolinyl)-1-piperazinethiocarboxamide] displayed a melting point of 160 to 161 °C.
As for `S=C(NCc1ccccc1)N1CCN(c2ncnc3ccccc23)CC1` [Compound 285, N-Benzyl-4-(4-quinazolinyl)-1-piperazinethiocarboxamide], the figure is 68 to 70 °C.
As for `COc1cc2ncnc(N3CCN(C(=O)Nc4ccc(C(F)(F)F)cc4)CC3)c2cc1OC` [Compound 23, 4-(6,7-Dimethoxy-4-quinazolinyl)-N-[4-(trifluoromethyl)phenyl]-1-piperazinecarboxamide], the figure is 227 to 230 °C.
As for `COc1cc2ccnc(N3CCN(C(=O)Nc4ccc(Oc5ccccc5)cc4)CC3)c2cc1OC` [Compound 423, 4-(6,7-Dimethoxy-1-isoquinolyl)-N-(4-phenoxyphenyl)-1-piperazinecarboxamide], the figure is 178 to 179 °C; as for `O=C(Nc1ccc(Oc2ccccc2)cc1)N1CCN(c2ncnc3ccc(Br)cc23)CC1` [Compound 303, 4-(6-Bromo-4-quinazolinyl)-N-(4-phenoxyphenyl)-1-piperazinecarboxamide], 169 to 170 °C; as for `CCNc1cc2ncnc(N3CCN(C(=O)Nc4ccc(Oc5ccccc5)cc4)CC3)c2cc1[N+](=O)[O-]` [Compound 109, 4-(7-Ethylamino-6-nitro-4-quinazolinyl)-N-(4-phenoxyphenyl)-1-piperazinecarboxamide], 242 to 244 °C.
For the molecule `COc1cc2ncnc(N3CCN(C(=O)Nc4ccc(Cl)c([N+](=O)[O-])c4)CC3)c2cc1OC` [Compound 83, N-(4-Chloro-3-nitrophenyl)-4-(6,7-dimethoxy-4-quinazolinyl)-1-piperazinecarboxamide], the melting point fell in the range of 253 to 255 °C.
As for `COc1cc2ncnc(N3CCN(C(=O)Nc4ccc(Oc5ccccc5)cc4)CC3)c2cc1OS(C)(=O)=O` [Compound 350, 4-(6-Mesyloxy-7-methoxy-4-quinazolinyl)-N-(4-phenoxyphenyl)-1-piperazinecarboxamide], the figure is 228 to 229 °C; as for `CCN(CC)c1ccc(NC(=O)N2CCN(c3ncnc4cc(OC)c(OC)cc34)CC2)cc1` [Compound 225, N-(4-Diethylaminophenyl)-4-(6,7-dimethoxy-4-quinazolinyl)-1-piperazinecarboxamide], 221 to 223 °C; as for `C#CCNC(=S)N1CCN(c2ncnc3cc(OC)c(OC)cc23)CC1` [Compound 16, 4-(6,7-Dimethoxy-4-quinazolinyl)-N-(2-propynyl)-1-piperazinethiocarboxamide], 158 to 160 °C.
The molecule `COc1cc2ncnc(N3CCN(C(=O)Nc4ccncc4)CC3)c2cc1OC` [Compound 267, 4-(6,7-Dimethoxy-4-quinazolinyl)-N-(4-pyridyl)-1-piperazinecarboxamide] showed a melting point of 141 to 143 °C.
With `COc1cc2ncnc(N3CCN(C(=O)Nc4ccccc4)CC3)c2cc1OC` [Compound 1, 4-(6,7-Dimethoxy-4-quinazolinyl)-N-phenyl-1-piperazinecarboxamide] the figure was 121 to 123 °C.
As for `O=C(Nc1ccc(Oc2ccccc2)cc1)N1CCN(c2ncnc3cc(OCc4ccccc4)c(OCc4ccccc4)cc23)CC1` [Compound 355, 4-(6,7-Dibenzyloxy-4-quinazolinyl)-N-(4-phenoxyphenyl)-1-piperazinecarboxamide], the figure is 137 to 138 °C; as for `CCOc1cc2ncnc(N3CCN(C(=S)NCc4cccnc4)CC3)c2cc1OC` [Compound 338, 4-(7-Ethoxy-6-methoxy-4-quinazolinyl)-N-(3-picolyl)-1-piperazinethiocarboxamide], 169 to 170 °C; as for `CC(=O)c1ccc(NC(=O)N2CCN(c3ncnc4ccc(F)cc34)CC2)cc1` [Compound 298, N-(4-Acetylphenyl)-4-(6-fluoro-4-quinazolinyl)-1-piperazinecarboxamide], 184 to 185 °C.
With `COc1cc2ncnc(N3CCN(C(=O)NCc4ccc(C(C)C)cc4)CC3)c2cc1OC` [Compound 153, 4-(6,7-Dimethoxy-4-quinazolinyl)-N-(4-isopropylbenzyl)-1-piperazinecarboxamide] the figure was 135 to 136 °C; with `COc1cc2ncnc(N3CCN(C(=O)NCCc4ccc(Cl)cc4)CC3)c2cc1OC` [Compound 119, N-[2-(4-Chlorophenyl)ethyl]-4-(6,7-dimethoxy-4-quinazolinyl)-1-piperazinecarboxamide], 177 to 178 °C; with `COc1ccc2c(N3CCN(C(=O)Nc4ccc(Oc5ccccc5)cc4)CC3)ncnc2c1OC` [Compound 383, 4-(7,8-Dimethoxy-4-quinazolinyl)-N-(4-phenoxyphenyl)-1-piperazinecarboxamide], 189 to 190 °C.
As for `COc1cc2ncnc(N3CCN(C(=O)Nc4cc(OC)c(OC)c(OC)c4)CC3)c2cc1OC` [Compound 212, 4-(6,7-Dimethoxy-4-quinazolinyl)-N-(3,4,5-trimethoxyphenyl)-1-piperazinecarboxamide], the melting point lay in the range of 198 to 199 °C.
As for `COc1cc2ncnc(N3CCN(C(=O)NCc4ccc(C(F)(F)F)cc4)CC3)c2cc1OC` [Compound 160, 4-(6,7-Dimethoxy-4-quinazolinyl)-N-(4-trifluoromethylbenzyl)-1-piperazinecarboxamide], the figure is 195 to 197 °C; as for `COc1cc2ncnc(N3CCN(C(=S)Nc4cccnc4)CC3)c2cc1OC` [Compound 97, 4-(6,7-Dimethoxy-4-quinazolinyl)-N-(3-pyridyl)-1-piperazinethiocarboxamide], 169 to 171 °C.
With `COc1cc2ncnc(N3CCN(C(=S)Nc4ccc(SC)cc4)CC3)c2cc1OC` [Compound 218, 4-(6,7-Dimethoxy-4-quinazolinyl)-N-(4-methylthiophenyl)-1-piperazinethiocarboxamide] the figure was 214 to 216 °C.

The values above are taken from US6472391B2, “Nitrogen-containing heterocyclic compounds” (Millennium Pharmaceuticals, Inc., priority 1996, dated 2002).
